Patent US20120021519A1, “EFFICIENT INDUCTION OF PLURIPOTENT STEM CELLS USING SMALL MOLECULE COMPOUNDS” (PRESIDENTS AND FELLOWS OF HARVARD COLLEGE, priority 2008, published 2012)
Values joined by “and” are separate entries in the source; they are usually repeats but may differ in a detail not shown here. Equal entries are not always repeated. “Also recorded” adds a separate entry of the source. Where two headings read alike, the source gives them in different places.

Legend:
[1] = test system: Oct4, cMyc and Sox2-infected Oct4::GFP MEFs; assay: Klf4 replacement: Oct4::GFP+ colonies in Oct4, cMyc, Sox2-infected MEFs; assay type: cell-based, mouse
Experimental: (§1) Moloney-based retroviral vectors (pMXs) expressing the murine complementary DNAs of Oct4, Sox2, c-Myc, and Klf4 were obtained from Addgene. These plasmids were transfected separately into individual populations of Plat-E packaging cells using Fugene 6, with 27 μl of Fugene 6 and 9 μg of DNA per 10 cm dish of Plat-E cells. Viral supernatants were obtained 48-72 hours post-transfection, filtered through a 0.22 μm filter, diluted 1:1 in MEF growth media, and supplemented with polybrene at a final concentration of 5 μg/ml. The supernatants for the four factors were mixed in an equimolar ratio, and media was used in place of a factor when it was omitted from the infection. MEFs were infected with two to three pools of viral supernatant during a 72-hour period. The first day that viral supernatant was termed “day 1 post-infection.”
On day 4 post-infection, infected MEFs were trypsinized and re-seeded on irradiated feeders in 96-well plates at 2000 cells/well and cultured in mouse ES cell media (Knockout DMEM supplemented with 15% Hyclone FBS, L-glutamine, penicillin/streptomycin, nonessential amino acids, β-mercaptoethanol, and 1000 U/ml LIF). The next day, compound stock solutions diluted in DMSO and, where applicable, VPA (Sigma), were added at a final concentration of 1 μM and 2 mM, respectively. […] Plates were scored for GFP+colonies after 11 of compound treatment. […]

[2] = test system: Oct4, Klf4, cMyc, and Sox2-infected MEFs; assay: Reprogramming efficiency with all four factors; assay type: cell-based, mouse
Experimental: as §1
(§2) Retroviral infection and compound or antibody treatment was performed as in the original chemical screen. To quantify the numbers of GFP+colonies produced in
(§3) different conditions, the number of colonies in each well was counted and at least 2 different wells were counted and averaged. Concentrations of compounds and antibodies were the following: VPA (Sigma)-2 mM, RepSox (Calbiochem)-25 μM, E-616451 (Calbiochem)-3 μM, EI-275 (Biomol)-3 SB-431542 (Sigma)-25 μM, TgfβIIspecific antibody (R&D Systems, AB-12-NA)-10 μg/ml, pan-Tgβ antibody (R&D Systems, AB-100-NA)-10 μg/ml. Unless otherwise noted, all chemical treatments were continuous from initial administration at day 4-5 post-infection until GFP+colonies were scored. Fresh chemical was added at each media change.

[3] = test system: Klf4, cMyc, and Sox2-infected Oct4::GFP MEFs; assay: Oct4 replacement: Oct4::GFP+ colonies in Klf4, cMyc, Sox2-infected MEFs; assay type: cell-based, mouse
Experimental: as §1
(§4) On day 4 post-infection, infected MEFs were trypsinized and re-seeded on irradiated feeders in 96-well plates at 2000 cells/well and cultured in mouse ES cell media (Knockout DMEM supplemented with 15% Hyclone FBS, L-glutamine, penicillin/streptomycin, nonessential amino acids, β-mercaptoethanol, and 1000 U/ml LIF). The next day, compound stock solutions diluted in DMSO and, where applicable, VPA (Sigma), were added at a final concentration of 1 μM and 2 mM, respectively. VPA was removed after 1 week, and compound was re-applied every other day with each media change. Plates were scored for GFP+colonies after 11 of compound treatment.
The inventors re-iterated their screen to find small molecules that could replace Oct4 (FIG. 27A). The inventors modified their approach slightly and screened in normal mES culture media containing a higher concentration of VPA (2 mM). After transducing 7500 MEFs with the four reprogramming transgenes and treating with VPA, the inventors observed only ˜125 GFP+ colonies (FIG. 27C). […] Therefore we opted to continue the screen under these conditions.
Following transduction with only Klf4, cMyc, and Sox2, 2000 MEFS were cultured for 25 days in the presence of VPA and each compound from the chemical library (FIG. 27A). […] Additionally, Ropivacaine, a compound that both antagonizes Na^+-channels and that also activates p38 mitogen-activated protein kinase (MAPK)(25)(FIG. 27B), induced more than 10 colonies that had mES-like morphologies, but were not GFP+(FIG. 27C).

[4] = test system: stable Oct4::GFP-negative intermediate cell lines (OKMS); assay: Chemical reprogramming of stable intermediate cell lines from Oct4, Klf4, cMyc, Sox2 MEFs; assay type: cell-based, mouse
Experimental: (§5) Oct4::GFP-negative colonies in Oct4, Klf4, and cMyc or Oct4, Klf4, cMyc, and Sox2-infected MEF cultures were picked, plated on irradiated feeders, and single colonies were picked after 1 week. The resulting cell lines were passaged with trypsin and grown in mES media on feeders until passage 4, at which time they were treated with RepSox (25 μM), AZA (500 μM), or both for 48 hours. Oct4::GFP+colonies were scored 12 days after the beginning of chemical treatment.

[5] = test system: stable Oct4::GFP-negative intermediate cell lines (OKM); assay: Chemical reprogramming of stable intermediate cell lines from Oct4, Klf4, cMyc MEFs; assay type: cell-based, mouse
Experimental: as §5

Tgf-β signaling = conditions: reference 32; cited from earlier work
Nanog = Nanog expression in partially reprogrammed intermediate cell lines; assay type: cell-based, mouse; conditions: lines OKM 10 and OKMS 7, 48 hours
Experimental: Cells were grown to near confluence on an irradiated layer and RNA was isolated with Trizol (Invitrogen). RNA was amplified and labeled with biotin using the Illumina Total Prep RNA Amplification Kit from Ambion, hybridized to Illumina Whole-Genome Expression BeadChips (MouseRef-8), and analyzed by an Illumina Beadstation 500. All lines were analyzed in biological duplicate or triplicate. Data were processed using Resolver software.

[6] = test system: Oct4, Klf4, and cMyc-infected Oct4::GFP MEFs; assay: Sox2 replacement: Oct4::GFP+ colony formation in Oct4, Klf4, cMyc-infected MEFs; assay type: cell-based, mouse
Experimental: MEFs were derived from E12.5 embryos hemizygous for the Oct4::GFP transgenic allele. Gonads and internal organs were removed before processing the embryos for MEF isolation. MEFs were grown in DMEM supplemented with 10% FBS and penicillin/streptomycin. Low passage (up to passage 3) MEFs were used for generation of iPS cells.
as §1, §4
Infections and VPA/compound addition was done as in the original chemical screen, and wells were scored for GFP+ colonies on day 25 after compound addition.
as §2, §3

[7] = test system: MEFs transduced with Oct4, Klf4, and Sox2; assay: cMyc replacement: Oct4::GFP+ colonies in the absence of cMyc; assay type: cell-based, mouse
Experimental: as §1, §2
different conditions, the number of colonies in each well was counted and at least 2 different wells were counted and averaged. […] Unless otherwise noted, all chemical treatments were continuous from initial administration at day 4-5 post-infection until GFP+colonies were scored. […]

SMILES: O=C(O)c1cc(NCc2cc(O)ccc2O)ccc1O [HDBA, Lavendustin C]
- GFP+ colonies with mES-like morphology in Klf4 replacement screen ([1]; 2000 cells per well, 25 days, scored after 30 days): hit compounds
- induction of GFP+ colonies and dependence on VPA ([1]; larger scale validation): both with and without VPA
- effect on reprogramming efficiency with all four iPS factors [2]: do not increase the efficiency of reprogramming

SMILES: COC1=C[C@@H]2[C@@H]3Cc4ccc(OC)c(O)c4C2(CCN3C)CC1=O [Sinomenine]
- effect on reprogramming efficiency with all four iPS factors ([2]; listed as Simomenine): not enhanced
- effect on reprogramming efficiency with all four iPS factors ([2]; listed as Sinimonine): do not increase the efficiency of reprogramming
- GFP+ colonies in Oct4 replacement screen ([3]; 2000 MEFs, 25 days, VPA 2 mM): induced GFP+colonies
- Oct4::GFP+ colonies in the absence of VPA ([3]; larger scale): failed to induce Oct4::GFP+colonies
- Oct4::GFP+ colonies in the presence of VPA ([3]; larger scale): induced Oct4::GFP+colonies

SMILES: CCCN1CCCC[C@H]1C(=O)Nc1c(C)cccc1C [Ropivacaine]
- effect on reprogramming efficiency with all four iPS factors [2]: do not increase the efficiency of reprogramming
- colonies becoming Oct4::GFP+ after added 5-aza-cytidine ([3]; VPA, then 5-aza-cytidine for 48 hours): majority of these colonies became Oct4::GFP+
- formation of GFP+ colonies, dependence on VPA and 5-aza-cytidine ([3]; larger scale): only when used in conjunction with VPA and 5-aza-cytidine
- colonies with mES-like morphologies but not GFP+ ([3]; screen with VPA): more than 10

SMILES: CCCCN1CCCCC1C(=O)Nc1c(C)cccc1C (stereo not drawn) [Bupivacaine]
- effect on reprogramming efficiency with all four iPS factors [2]: not enhanced
- effect on reprogramming efficiency with all four iPS factors ([2]; listed as Bupivocaine): do not increase the efficiency of reprogramming
- Oct4::GFP+ colonies in the absence of VPA ([3]; larger scale): independently induced GFP+colonies

SMILES: Nc1ncn([C@@H]2O[C@H](CO)[C@@H](O)[C@H]2O)c(=O)n1 [AZA, 5-aza-cytidine]
- Oct4::GFP expression in RepSox-responsive OKMS lines ([4]; 48 hours treatment and 12 subsequent days): none of the RepSox-responsive cell lines expressed Oct4::GFP
- lines reprogrammed out of 9 OKMS intermediate lines ([4]; 48 hours treatment at passage 4): one
- lines reprogrammed out of 10 OKM intermediate lines ([5]; 48 hours treatment): none
- Oct4::GFP+ colonies in line OKM 10 ([5]; 48 hours, then 14 days culture): Neither chemical induced formation of Oct4::GFP+colonies

SMILES: NC(=O)c1ccc(-c2nc(-c3ccc4c(c3)OCO4)c(-c3ccccn3)[nH]2)cc1 [SB431542, 4-(5-benzo[1,3]dioxol-5-yl-4-pyridin-2-yl-1H-imidazol-2-yl)-benzamide]
- concentration required for complete Tgf-β inhibition (Tgf-β signaling): greater than 1 μM
- Nanog expression versus untreated control (Nanog): strongly increased
- effect on reprogramming efficiency with all four iPS factors [2]: do not increase the efficiency of reprogramming
- GFP+ colonies per 7500 cells plated ([6]; 25 μM): −10
- reprogramming efficiency in the absence of cMyc [7]: increased reprogramming efficiency

SMILES: CCCC(CCC)C(=O)O [VPA, valproic acid]
- increase in the number of GFP+ colonies over the untreated control [2]: greater than 10 fold
- GFP+ colonies per 7500 MEFs in medium with VPA ([2]; four transgenes + VPA): 100-200 and ~125
- GFP+ colonies with VPA alone ([6]; 1500 MEFs, VPA only, no Sox2): no GFP+colonies were observed

SMILES: c1ccc(-c2n[nH]cc2-c2ccnc3ccccc23)nc1 [E-616451, [3-(Pyridin-2-yl)-4-(4-quinoyl)]-1H-pyrazole]
- effect on reprogramming efficiency with all four iPS factors [2]: not enhanced; also recorded: do not increase the efficiency of reprogramming
- rate of GFP+ colony formation with VPA ([6]; 1500 MEFs, + VPA, E-616452 25 μM, E-616451 3 μM, EI-275 3 μM): comparable to normal retroviral transduction with Sox2
- GFP+ colonies with mES-like morphology in primary screen ([6]; 2000 cells per well, compound 1 μM, 2 mM VPA for first 7 days, scored after 16 days): induced GFP+colonies
- concentration at which found to be most potent in reprogramming ([6]; E-616451 and EI-275 +VPA): 3 µM
- optimal concentration for Oct4::GFP+ colony formation ([6]; compound titration, 2 mM of VPA in all wells (FIG. 7)): greater than 1 μM
- GFP+ colonies in the absence of VPA ([6]; no VPA): could not induce the appearance of GFP+colonies
